PMC5716539, “The acute glucose lowering effect of specific GPR120 activation in mice is mainly driven by glucagon-like peptide 1” (PLoS ONE, 2017)

Key:
mouse islets = tested on: mouse islets; set-up: method as in PMID 24663807; conditions: cited from earlier work
human GPR40 = human GPR40 (Homo sapiens, UniProt O14842); experiment: DMR assay in CHO-hGPR40 cells; assay type: cell-based
Experimental: DMR (dynamic mass redistribution) was measured by resonant waveguide grating (RWG) using an Epic biosensor (Corning). CHO-hGPR120, CHO-mGPR120 and CHO cells in DMEM/F-12 (Invitrogen) were cultured in fibronectin coated 384-well Epic plates (Corning) at 37°C, 95% humidity and 5% CO2 for 5 hours with 10% FBS (Sigma), followed by 19 hours without FBS. CHO-hGPR40 cells were cultured at 37°C, 95% humidity and 5% CO2 for 20–24 hours in Ham’s F-12 Nutrient Mix with GlutaMAX (Invitrogen) supplemented with Non-Essential Amino Acids (Gibco) and 10% FBS (Sigma) in fibronectin coated 384-well Epic plates (Corning). Following the incubations culture media was replaced with HBSS (Invitrogen), 20 mM HEPES (Invitrogen), pH 7.4 and 1% DMSO and equilibrated to 26°C in the Epic for thirty min before addition of agonists and detection of DMR.

GPR120 null mice [1] = experiment: OGTT in male GPR120 null mice; assay type: in vivo, mouse
Experimental: OGTT tests were performed in lean male mice (body weight 27-32g), randomized on body weight, fasted for 16 hours. An oral glucose load (2 g/kg) was administered 30 min (AZ13581837, 7 and 18 mg/kg) or 60 min (Metabolex-36, 10, 30 and 100 mg/kg) after oral dosing with the GPR120 agonists and blood glucose was measured at -30, 0, 10, 25, 40, 60 and 90 min post glucose administration. The specificity of Metabolex-36 was examined in male GPR120 null mice. The administration time for the GPR120 agonists was optimized depending on the pharmacokinetic profile of each compound, in order to maximize the plasma exposure of the compounds during the experiments.

GPR120 null mice [2] = experiment: IVGTT in female GPR120 null mice; assay type: in vivo, mouse
Experimental: Lean female mice (body weight 20–25 g), were randomized on body weight and fasted 4 hours prior to the IVGTT. Metabolex-36 (100 mg/kg) was administered orally 60 min and AZ13581837 (35mg/kg) 30 min before the IVGTT ([…]). Control mice were given vehicle (0.5% HPMC, 0.1% Tween-80) at corresponding time points. The specificity of AZ13581837 was examined in IVGTT in GPR120 null mice. GPR120 agonist doses were selected to reach plasma levels of at least 10 times over the in vitro EC50 value to achieve maximal activation of GPR120 (S2 Appendix). Thirty minutes prior to the glucose load, the mice were anaesthetised (20 mg/kg fluanisone/0.8 mg/kg fentanyl (Hypnorm®, Janssen, Beerse, Belgium) and 10 mg/kg midazolam (Dormicum®, Hoffman-LaRoche, Basel, Switzerland)) to allow for rapid blood sampling. The mice were kept at a heating pad to maintain body temperature.
In the IVGTT, the acute insulin response (AIR) was calculated as the mean of suprabasal 1 and 5 min values, and the glucose elimination was quantified using the glucose elimination constant (KG) calculated as the slope of the logarithmic transformation of circulating glucose between 1 and 20 min after the glucose bolus. Multiple comparisons between the different groups were performed by one-way ANOVA. Tukey’s or Bonferroni’s post hoc test were used to calculate statistical differences between the groups. […]

Sequence of human GPR40 (O14842 whole entry): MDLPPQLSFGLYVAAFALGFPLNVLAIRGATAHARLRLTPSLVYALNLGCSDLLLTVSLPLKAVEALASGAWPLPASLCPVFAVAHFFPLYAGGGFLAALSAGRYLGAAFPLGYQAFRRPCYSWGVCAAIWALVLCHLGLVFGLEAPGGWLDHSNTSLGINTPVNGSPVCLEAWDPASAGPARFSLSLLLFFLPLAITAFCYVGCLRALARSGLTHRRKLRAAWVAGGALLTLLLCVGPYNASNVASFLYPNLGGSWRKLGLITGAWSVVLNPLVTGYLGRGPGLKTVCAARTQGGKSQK

Row | Molecule | Somatostatin secretion in vitro from mouse islets (mouse islets) | DMR response in CHO-hGPR40 cells (human GPR40) | Effect on oral glucose tolerance in GPR120 null mice (GPR120 null mice [1]) | Glucose elimination in GPR120 null mice (GPR120 null mice [2]; IVGTT) | Acute insulin secretion in GPR120 null mice (GPR120 null mice [2]; vs vehicle of same genotype)
1 | 3-(3,5-difluoro-4-((3-methyl-1-phenyl-1H-pyrazol-5-yl)methoxy)phenyl)-2-methylpropanoic acid [Metabolex-36] | reduce somatostatin secretion | Neither AZ13581837 nor Metabolex-36 were able to induce a DMR response | no effect |  | 
2 | C#Cc1cc(Oc2cccnc2)cc(N2Cc3ccccc3S2(=O)=O)c1 [AZ13581837, 2-(3-ethynyl-5-(3-pyridyloxy)phenyl)-3H-1,2-benzothiazole 1,1-dioxide] |  | Neither AZ13581837 nor Metabolex-36 were able to induce a DMR response |  | no effect | no effect
